What was measured:
[1] = target: T1, Ire1KR32 (cytosolic kinase/RNase portion of Ire1) (Saccharomyces cerevisiae, UniProt P32361); experiment: inhibition of ADP-stimulated RNase cleavage of […]-RNA hairpin; type: biochemical; settings: competition with 0.2 mM ADP, 3 µM Ire1KR32, 2 mM Mg2+, pH 7.4, 30 °C; kinase ATP pocket; paper prints mmol for mM
T1 construct: cytoplasmic kinase + RNase domains with N-terminal 32-aa extension from the linker to the transmembrane segment; GST fusion (pGEX-6P-2) in E. coli, GST cleaved by PreScission; autophosphorylated (~20 phosphates); homo-oligomerizes
T1 sequence (P32361 641-1115): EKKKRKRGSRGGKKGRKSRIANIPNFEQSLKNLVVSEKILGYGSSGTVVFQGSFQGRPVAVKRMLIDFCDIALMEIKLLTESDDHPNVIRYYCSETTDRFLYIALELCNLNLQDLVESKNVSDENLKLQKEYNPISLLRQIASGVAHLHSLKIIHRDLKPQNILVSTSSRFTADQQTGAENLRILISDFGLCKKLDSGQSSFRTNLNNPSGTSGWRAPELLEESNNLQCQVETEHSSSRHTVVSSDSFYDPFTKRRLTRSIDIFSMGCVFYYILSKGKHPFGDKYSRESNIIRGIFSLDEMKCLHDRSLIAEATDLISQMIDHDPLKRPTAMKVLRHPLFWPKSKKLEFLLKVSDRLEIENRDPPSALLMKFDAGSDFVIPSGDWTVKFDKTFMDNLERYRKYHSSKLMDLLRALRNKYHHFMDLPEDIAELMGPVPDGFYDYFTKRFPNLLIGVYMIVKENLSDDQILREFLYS

[2] = target: T1, Ire1KR32 (cytosolic kinase/RNase portion of Ire1); experiment: RNase activation, hyperbolic fit of kobs versus cofactor ([…]P-RNA hairpin); type: biochemical; settings: 3 µM Ire1KR32, 2 mM Mg2+, pH 7.4, 30 °C; allosteric activator in kinase ATP pocket

Row | Ki [1] [mM] | SMILES | Kcof (apparent cofactor binding constant) [2]
1 | 0.2 ± 0.07 | Nc1ncnc2c1ncn2[C@@H]1O[C@H](COP(=O)(O)OP(=O)(O)S)[C@@H](O)[C@H]1O (some centres unmarked) [ADPβS] | –
2 | – | Nc1ncnc2c1ncn2[C@@H]1O[C@H](COP(=O)(O)O)[C@@H](O)[C@H]1O [AMP] | the apparent affinity for AMP was tenfold lower than that observed for ATP
3 | – | c1cc(Nc2cc(C3CC3)[nH]n2)nc(Nc2ccc3[nH]cnc3c2)n1 [APY29] | APY24 and APY29 activated Ire1 as well as or better than ADP
4 | 0.1 ± 0.04 | Nc1ncnc2c1ncn2[C@@H]1O[C@H](COP(=O)(O)OP(=O)(O)OP(=O)(O)O)[C@@H](O)[C@H]1O [ATP] | the apparent affinity for AMP was tenfold lower than that observed for ATP
5 | – | Nc1ncnc2c1ncn2[C@@H]1O[C@H](COP(=O)(O)OP(=O)(O)O)[C@@H](O)[C@H]1O [ADP] | ADP bound with an apparent affinity similar to that of ATP
6 | – | Nc1ncnc2c1ncn2[C@@H]1O[C@H](COP(=O)(O)OP(=O)(O)OP(O)(O)=S)[C@@H](O)[C@H]1O [ATPγS] | ATPγS bound to Ire1 slightly more weakly than ATP
7 | – | CCN(CC)CCNC(=O)c1c(C)[nH]c(/C=C2\C(=O)Nc3ccc(F)cc32)c1C [sunitinib] | activated Ire1KR32 to a similar extent as AMP and ATP

Reference: article PMC3158555, “Cofactor-mediated conformational control in the bifunctional kinase/RNase Ire1” (BMC Biology, 2011)
